Source: patent US9573898B2, “Pyridine derivates and their use as Umami tastants” (Givaudan S.A., priority 2011, dated 2017)

Key:
Assay type in all cases: in vivo, human
[1] = test system: professional panel composed of 2 women and 2 men; experiment: Tasting of NaCl/ribonucleotide solutions by a professional panel (Example 4); conditions: 10 ppm compound in 0.5% NaCl and 0.002% ribonucleotide mixture vs the same solution without compound
Method: Three solutions were prepared: • A—a solution of 0.5% NaCl and 0.002% Ribonucleotide mixture, • B—a solution of 0.5% NaCl, 0.002% Ribonucleotide mixture and 10 ppm of 2-(4-ethylphenoxy)-N-(pyridin-2-ylmethyl)acetamide, • C—a solution of 0.5% NaCl, 0.002% Ribonucleotide mixture and 10 ppm of 2-(4-isopropylphenoxy)-N-(pyridin-2-ylmethyl)acetamide.
The samples were tasted by a professional panel composed of 2 women and 2 men aged between 30 and 60.

[2] = test system: professional panel composed of 2 women and 3 men; experiment: Tasting of NaCl solutions by a professional panel (Example 2)
Method: Two solutions were prepared: • A—a solution of 0.3% NaCl and 0.05% MSG, • B—a solution of 0.3% NaCl and 1 ppm of 2-(2,3-dihydro-1H-inden-5-yloxy)-N-(pyridin-2-ylmethyl)acetamide.
The samples were tasted by a professional panel composed of 2 women and 3 men aged between 30 and 60. The panel agreed that both solutions tasted umami.

[3] = test system: trained sensory panel composed of 20 women; experiment: Potato chips tasting by a trained sensory panel (Example 6)
Method: Plain potato chips were prepared. • One part was flavoured with 1.2% sodium chloride (sample A). • One part was flavoured with 1.2% sodium chloride and 0.3% mono sodium glutamate (sample B). • One part was flavoured with 1.2% sodium chloride and 5 ppm 2-(2,3-dihydro-1H-inden-5-yloxy)-N-(pyridin-2-ylmethyl)acetamide (sample C).
The samples A, B and C were tasted by a trained sensory panel composed of 20 women aged between 30 and 60.

[4] = test system: professional panel composed of 2 women and 3 men; experiment: Tasting of NaCl/MSG/ribonucleotide solutions by a professional panel (Example 3); conditions: solution B (0.5% NaCl, 0.05% MSG, 0.010% ribonucleotide mixture, 2 ppm compound) vs solution A (0.5% NaCl, 0.15% MSG, 0.025% ribonucleotide mixture)
Method: Two solutions were prepared: • A—a solution of 0.5% NaCl, 0.15% MSG and 0.025% Ribonucleotide mixture, • B—a solution of 0.5% NaCl, 0.05% MSG, 0.010% Ribonucleotide mixture and 2 ppm of 2-(2,3-dihydro-1H-inden-5-yloxy)-N-(pyridin-2-ylmethyl)acetamide.
The samples were tasted by a professional panel composed of 2 women and 3 men aged between 30 and 60.

[5] = test system: small group of flavourists (2 male, 2 female); experiment: Tomato soup tasting by flavourists (Example 5); conditions: tomato soup containing 2 ppm compound vs reference soup
Method: A tomato soup mix was prepared from 9.4 g of sodium chloride, 1 g of mono sodium glutamate, 0.08 g ribonucleotides (ex yeast), 32 g of tomato powder (ex Spreda), 25.1 g of glucose, 21 g of starch (Ultrasperse® 5 ex National Starch), 5 g of palm fat powder, 3 g of yeast powder, 1 g of onion powder, 0.15 g of carrot powder, 0.05 g of ground white pepper, 0.3 g celery extract powder, 0.05 g of ground laurel leaf powder, and 1.85 g of sucrose.
25 g of the well mixed ingredients was added to 250 g of boiling water and stirred until completely dissolved.
The reference soup was compared with a batch of the same soup containing 2 ppm of 2-(2,3-dihydro-1H-inden-5-yloxy)-N-(pyridin-2-ylmethyl)acetamide.

[6] = test system: small group of flavourists (2 male, 2 female); experiment: Diluted soy sauce tasting by flavourists (Example 7); conditions: sample A: Kikkoman soy sauce diluted 10 times, 1.5 ppm compound
Method: Kikkoman® soy sauce was diluted 10 times with tap water. One part of the base soy sauce was taken as the reference. To another part (called sample A) 1.5 ppm of 2-(2,3-dihydro-1H-inden-5-yloxy)-N-(pyridin-2-ylmethyl)acetamide was added. To a third part (called sample B) 0.5 ppm of 2-(2,3-dihydro-1H-inden-5-yloxy)-N-(pyridin-2-ylmethyl)acetamide and 1 ppm of 1-(2-hydroxy-4-methoxyphenyl)-3-(pyridin-2-yl)propan-1-one were added.

[7] = solution B (0.3% NaCl, 1 ppm compound) vs solution A (0.3% NaCl, 0.05% MSG)

SMILES: CCc1ccc(OCC(=O)NCc2ccccn2)cc1 [2-(4-ethylphenoxy)-N-(pyridin-2-ylmethyl)acetamide]
- umami strength compared with solution A [1]: stronger umami strength

SMILES: CC(C)c1ccc(OCC(=O)NCc2ccccn2)cc1 [2-(4-isopropylphenoxy)-N-(pyridin-2-ylmethyl)acetamide]
- umami strength compared with solution A [1]: stronger umami strength

SMILES: N[C@@H](CCC(=O)O)C(=O)[O-].[Na+] [MSG, mono sodium glutamate, reference compound]
- umami taste of solution ([2]; solution A: 0.3% NaCl and 0.05% MSG): tasted umami
- taste description ([3]; sample B: 1.2% sodium chloride and 0.3% mono sodium glutamate): salty and umami

SMILES: O=C(COc1ccc2c(c1)CCC2)NCc1ccccn1 [2-(2,3-dihydro-1H-inden-5-yloxy)-N-(pyridin-2-ylmethyl)acetamide]
- umami strength compared with solution A [4]: equal umami strength
- further taste notes compared with solution A [2, 7]: more succulence and sweetness and had more lingering notes
- umami strength compared with solution A [2, 7]: slightly stronger umami
- umami taste of solution ([2]; solution B: 0.3% NaCl and 1 ppm compound): tasted umami
- complexity of taste compared with base soup [5]: tasted more complex
- umami taste compared with base soup [5]: more umami
- panel preference ([3]; sample C (1.2% sodium chloride, 5 ppm compound) vs sample A (1.2% NaCl) and sample B (1.2% NaCl, 0.3% MSG)): preferred over the other two samples
- taste description ([3]; sample C: 1.2% sodium chloride and 5 ppm compound): salty, umami, long lasting, savory
- complexity compared with base soy sauce [6]: more complex
- umami and sweet taste compared with base soy sauce [6]: more umami and slightly more sweet
